The subject of data set [1] is H1975 lung cancer cells expressing L858R/T790M EGFR. The data set is described as follows: MTT cytotoxicity assay on H1975 cells. Format: cell-based, Human. To be noted: read-out: IC50, cytotoxic effect on H1975 cell viability. (Tetrazolium assays rely on reduction of a dye to a coloured formazan, in cell work by metabolically active cells.)
Procedure: Both cells were maintained to grow at 37 °C in a humidified 5% CO2 atmosphere.
The studied cell lines were seeded into 96-well plates (cell density of 6000 cells/well) and were incubated overnight. […] After incubation, the effect of compounds on cell viability was measured using the MTT assay as follows: 10 μL of MTT solution (5 mg/mL) was added and then incubated for 3 h. The medium was removed, followed by adding 50 μL of DMSO to dissolve the crystal formazan product. The purple solution of crystal formazan was then measured at 570 nm using a microplate spectrophotometer (Infinite M200 microplate reader, Tecan, Männedorf, Switzerland). The complete medium with 1.0% DMSO (no inhibitor) was used as a control in accordance with the reaction containing 1.0% DMSO of all wells.
Data set [2] addresses EGFR (L858R/T790M/C797S) TK (Homo sapiens, UniProt P00533, C797S/L858R/T790M). Briefly: ADP-Glo kinase assay, EGFR tyrosine kinase inhibition. It is filed as biochemical. As to the method:
The inhibitory activity of each candidate compound towards EGFR triple mutations was performed using the luminescent ADP-Glo™ kinase assay (Promega Corporation, Madison, WI, USA) as previously described. […] Subsequently, 10 μL of kinase detection reagent was added and incubated at room temperature for 30 min to convert ADP into ATP. The generated luminescence by ATP in a luciferase reaction was then measured using a microplate reader (Infinite M200 microplate reader, Tecan, Männedorf, Switzerland), which corresponds to kinase activity. All assays were performed in triplicate and the obtained data were represented as the relative inhibition (%) of inhibitors compared to the control with no inhibitor as shown in Equation (1); (1) % relative inhibition=positive−negative−sample−negative/positive−negative×100
In general terms: In ADP-Glo the light output rises with the ADP produced.

For another data set, the system named is Vero normal kidney cells. Briefly: MTT cytotoxicity assay on Vero cells. To be noted: read-out: IC50, cytotoxic effect on Vero cell viability, 72 h.
Data set [3] in a line: MTT cytotoxicity assay on Vero cells. To be noted: monkey, Vero cells (normal kidney epithelial cell line), IC50, cytotoxic effect on Vero cell viability.
Procedure: (§1) Human NSCLC cell lines, H1975 (ATCC CRL-5908) and monkey’s normal kidney epithelial cell line (Vero, ATCC CCL-81) were purchased from American Type Culture Collection (ATCC, Manassas, VA, USA). H1975 cells were grown in RPMI-1640 medium supplemented with 10% FBS, 100 U/mL penicillin, and 100 µg/mL streptomycin. Vero cells were grown in Dulbecco’s modified Eagle’s minimal essential medium (DMEM; Gibco, Grand Island, NY, USA) containing 10% fetal bovine serum (FBS; Gibco), 100 U/mL penicillin, and 100 µg/mL streptomycin (Gibco). Both cells were maintained to grow at 37 °C in a humidified 5% CO2 atmosphere.
(§2) The studied cell lines were seeded into 96-well plates (cell density of 6000 cells/well) and were incubated overnight. Then, cells were treated with screened compounds and the known drug with various concentrations (125, 62.5, 31.25, 15.63, 7.81, 3.91, 1.95, and 0.98 μM) for 72 h. After incubation, the effect of compounds on cell viability was measured using the MTT assay as follows: 10 μL of MTT solution (5 mg/mL) was added and then incubated for 3 h. The medium was removed, followed by adding 50 μL of DMSO to dissolve the crystal formazan product. The purple solution of crystal formazan was then measured at 570 nm using a microplate spectrophotometer (Infinite M200 microplate reader, Tecan, Männedorf, Switzerland). The complete medium with 1.0% DMSO (no inhibitor) was used as a control in accordance with the reaction containing 1.0% DMSO of all wells.
A short description of another data set: in vitro. To be noted: monkey, IC50, cytotoxic effect on Vero cell viability.
[4] abbreviates: Homo sapiens, NCI-H1975, MTT, 72 h.
Where [5] appears, read: enzyme-based assay, mean ± SEM, triplicate, read-out: IC50, kinase inhibitory activity against EGFR (L858R/T790M/C797S).

Where two headings read alike, the source gives them in different places.

Sequence of EGFR (L858R/T790M/C797S) TK (P00533 25-1210 T790M/C797S/L858R): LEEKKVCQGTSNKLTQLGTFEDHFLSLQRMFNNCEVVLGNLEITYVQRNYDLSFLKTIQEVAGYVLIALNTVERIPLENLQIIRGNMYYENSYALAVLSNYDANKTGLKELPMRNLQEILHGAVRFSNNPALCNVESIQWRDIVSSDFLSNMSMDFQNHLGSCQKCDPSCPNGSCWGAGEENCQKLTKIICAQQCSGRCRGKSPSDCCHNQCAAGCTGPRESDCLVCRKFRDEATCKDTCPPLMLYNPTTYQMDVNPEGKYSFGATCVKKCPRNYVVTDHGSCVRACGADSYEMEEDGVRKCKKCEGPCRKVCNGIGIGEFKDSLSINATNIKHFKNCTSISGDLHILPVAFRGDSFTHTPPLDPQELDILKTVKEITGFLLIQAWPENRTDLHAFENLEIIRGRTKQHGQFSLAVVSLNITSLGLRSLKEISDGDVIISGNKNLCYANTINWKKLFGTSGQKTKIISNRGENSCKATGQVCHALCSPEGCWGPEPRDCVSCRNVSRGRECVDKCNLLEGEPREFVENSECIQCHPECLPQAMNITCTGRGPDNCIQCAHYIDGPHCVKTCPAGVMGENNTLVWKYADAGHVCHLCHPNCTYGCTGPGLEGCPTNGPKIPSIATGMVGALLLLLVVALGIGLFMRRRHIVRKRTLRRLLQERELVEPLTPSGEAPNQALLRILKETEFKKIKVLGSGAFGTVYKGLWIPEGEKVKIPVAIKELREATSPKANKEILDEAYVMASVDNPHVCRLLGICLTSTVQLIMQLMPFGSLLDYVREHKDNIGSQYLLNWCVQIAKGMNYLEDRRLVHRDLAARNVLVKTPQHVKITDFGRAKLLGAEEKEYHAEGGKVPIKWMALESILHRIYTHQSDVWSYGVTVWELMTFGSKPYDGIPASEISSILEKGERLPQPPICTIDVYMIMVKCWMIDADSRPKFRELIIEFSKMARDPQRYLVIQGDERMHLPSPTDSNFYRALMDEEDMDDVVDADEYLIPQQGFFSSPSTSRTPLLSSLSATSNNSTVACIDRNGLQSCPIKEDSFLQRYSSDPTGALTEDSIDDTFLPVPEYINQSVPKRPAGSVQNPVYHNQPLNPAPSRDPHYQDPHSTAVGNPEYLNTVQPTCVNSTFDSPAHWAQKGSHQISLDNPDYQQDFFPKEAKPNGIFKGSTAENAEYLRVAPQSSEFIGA
Procedure for Vero normal kidney cells: as §1, §2
Procedure for in vitro: as §1, §2

Take `CCn1c(=O)c(-n2cnc3ccccc32)nc2ccccc21` [CPD15]: the IC50 was 31.2 ± 3.4 µM in data set [1] (MTT, 72 h); 0.0065 ± 0.00302 µM in data set [2]; greater than 50 µM in the data set on Vero normal kidney cells. In data set [3], this molecule had an IC50 at 72 h greater than 100 µM.
For `CCOc1nc2ccccc2n(Cc2ccccc2)c1=O` [CPD21, 1-Benzyl-3-ethoxyquinoxalin-2(1H)-one], the IC50 came to 44.7 ± 2.34 µM in data set [1] (setting [4]) and 0.00381 ± 0.0018 µM in data set [2] (setting [5]). The IC50 at 72 h in data set [3] was greater than 100 µM.
For the molecule `O=c1[nH]c2ccccc2nc1OCc1ccccc1` [CPD16], the IC50 was determined as 79.4 ± 4.35 µM in data set [1] (setting [4]) and 0.0105 ± 0.0011 µM in data set [2] (setting [5]). The IC50 at 72 h in data set [3] is greater than 100 µM.
For `O=c1c(-n2cncn2)nc2ccccc2n1Cc1ccccc1` [CPD4], the IC50 came to 3.47 ± 2.2 µM in data set [1] (setting [4]) and 0.00304 ± 0.00124 µM in data set [2] (setting [5]). The same molecule had an IC50 at 72 h in data set [3] greater than 20 µM.
In the case of `C=CC(=O)Nc1cc(Nc2nccc(-c3cn(C)c4ccccc34)n2)c(OC)cc1N(C)CCN(C)C` [Osimertinib, reference compound], the IC50 in data set [1] (Homo sapiens, NCI-H1975, 72 h) was found to be 18.3 ± 2.02 µM. The molecule further gave an IC50 at 72 h in the data set “in vitro” greater than 100 µM.

The values above are taken from publication PMC9788584, “Quinoxalinones as A Novel Inhibitor Scaffold for EGFR (L858R/T790M/C797S) Tyrosine Kinase: Molecular Docking, Biological Evaluations, and Computational Insights” (Molecules, 2022).
